From US10604509B2, “Nrf2 regulators” (GlaxoSmithKline Intellectual Property Development Limited, priority 2015, dated 2020)
pEC50: −log10 of the molar value. Where a name gives a salt, the structure may show the parent alone.

Tests used:
[1] = tested on: COPD macrophages and alveolar macrophages from cigarette smoke-exposed mice; conditions: cited from earlier work
rats [2] = conditions: cerebral ischemia-reperfusion model; cited from earlier work
mice = conditions: NRF2 wild-type and KO mice after administration; cited from earlier work
rats [3] = conditions: rats on a choline-deficient L-amino acid-defined diet; cited from earlier work
[4] = tested on: NQO1 specific enzyme activity in BEAS-2B cells; experiment: BEAS-2B NQO1 MTT assay; assay type: cell-based; conditions: Homo sapiens, BEAS-2B, 48 h, BEAS-2B cells, 48 hours with compound, MTT readout; read-out: EC50 of NQO1 specific activity induction
Outline: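 BEAS-2B cells treated with compound 48 h at 37° C, 5% CO2, then lysed; NQO1 activity in lysate measured kinetically by MTT cocktail at Absorbance 570 nm over 30 min. EC50 for induction from Delta OD/min versus log concentration, 3-parameter fit; Cell Titer Glo run on lysate aliquot.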

SMILES | progression of histologic abnormalities, especially hepatic fibrosis (rats [3]) | pEC50 [4] | other results
C[S+]([O-])CCCCN=C=S (centres unmarked) [Sulforaphane] | – | – | expression of Macrophage Receptor with Collagenous structure (MARCO) ([1]; COPD macrophages and alveolar macrophages from cigarette smoke-exposed mice): increases the expression of Macrophage Receptor with Collagenous structure (MARCO); bacterial phagocytosis and bacterial clearance ([1]; Pseudomonas aeruginosa, non-typable Haemophilus influenzae, ex vivo and in vivo): improving in these cells bacterial phagocytosis
CC(C)(C)c1cc(O)ccc1O [tert-butylhydroquinone (tBHQ), tert-butylhydroquinone] | – | – | cortical damage (rats [2]): reduced cortical damage; cortical glutathione levels (mice): increased in NRF2 wild-type but not KO mice
Cc1c(-c2cnccn2)ssc1=S [oltipraz] | significantly attenuated progression of histologic abnormalities | – | –
O=C(NCc1ccccn1)Nc1nnc(-c2ccco2)o1 [NK-252] | significantly attenuated progression of histologic abnormalities | – | –
CC[C@@H]1CN(Cc2cc(C(Cc3nnn[nH]3)c3ccc4c(nnn4C)c3C)ccc2C)Cc2ccccc2O1 (stereo partly drawn) [Example 112, (2R)-4-(5-(1-(1,4-dimethyl-1H-benzo[d][1,2,3]triazol-5-yl)-2-(1H-tetrazol-5-yl)ethyl)-2-methylbenzyl)-2-ethyl-2,3,4,5-tetrahydrobenzo[f][1,4]oxazepine, Formic Acid Salt] | – | 6.00 to 7.00 | –
Cc1ccc(C(c2ccc3c(nnn3C)c2C)C(C)(C)C(=O)O)cc1Cn1ccnc1CN1CCO[C@H](C)C1 (stereo partly drawn) [Example 144, 3-(1,4-Dimethyl-1H-benzo[d][1,2,3]triazol-5-yl)-2,2-dlmethyl-3-(4-methyl-3-((2-(((R)-2-methylmorpholino)methyl)-1H-imidazol-1-yl)methyl)phenyl) propanoic acid, trifluoroacetic acid salt] | – | 6.00 to 7.00 | –
